The values that follow come from patent US20210196627A1, “SYSTEMS FOR ENTERIC DELIVERY OF THERAPEUTIC AGENTS” (Lyndra, Inc., priority 2018, published 2021).

The term Tmax denotes the time at which the peak concentration occurs.

This series in a line: Memantine bioanalysis in plasma after duodenal placement of stellate system (LC-MS/MS). The format is in vivo, beagle dogs. The source says: Six male beagle dogs (each weighing ˜10 kg) were anesthetized and intubated, and stellate-shaped systems bearing memantine drug arms were placed endoscopically through the pylorus into the duodenum. Each stellate system contained steel beads at the tips of the drug arms which facilitated X-ray imaging for confirming successful duodenal placement.
X-rays were collected daily to monitor residence time in the small intestine. Blood samples were collected through Day 10 of the study and processed to plasma for quantitation of memantine using an LC-MS/MS assay. The dogs were monitored for the duration of the study for safety.

For `CC12CC3CC(C)(C1)CC(N)(C3)C2` [memantine], the “time for which sustained release of memantine was measurable” value (dog plasma, stellate system placed in duodenum, blood sampled through Day 10) is reported as 7 days. Further, the Tmax (male, beagle, memantine in dog plasma, stellate system placed endoscopically in duodenum) worked out at 8 h. Under “memantine in dog plasma, stellate system placed in duodenum”, the “exposure from the small intestine” value is listed as “good exposure”.
